Data: US12564574B2, “Pharmaceutical composition for preventing or treating parkinson's disease, comprising 2-(4-(1-hydroxypropane-2-yl)phenyl)isoindoline-1-one compound” (YEP BIO CO. LTD., priority 2020, dated 2026)

Experiments:
[1] = system: PGC-1α protein in SH-SY5Y cells; test: Immunoblot of PGC-1α protein after treating SH-SY5Y cell line with compounds; type: cell-based, human; conditions: SH-SY5Y cell line, 0.01, 0.1, 1, 10 μM, 48 hours
Method: To culture human neuroblasts SH-SY5Y cells (ATCC, Manassas, VA), 10% FBS (vol/vol, Welgene Gold Serum, cat #S 001-07) and DMEM (Welgene fresh media DMEM, cat #LM 001-05) including antibiotics were used, wherein the culture was performed in an incubator (Forma Direct Heat CO2 incubator, Thermo Scientific) at 37° C. in the presence of 5% carbon dioxide.
(§1) RIPA buffer was added to the SH-SY5Y cells and SN of C57L/6N mice, followed by homogenization with a homogenizer. Thereafter, the freezing and melting process was repeated three times, and quantification was performed using a BCA kit based on BSA to check the total amount of protein.
(§2) Lysates were identified by adding 2× SDS sample buffer, heating at 95° C. for 10 minutes to perform immunoblot, and then treating the desired protein with antibody.
(§3) In the immunoblot experiment, the darkness of the band was measured using the ImageJ (NIH, Bethesda, […], USA, http://rsb.info.nih.gov/ij/) program, and statistical analysis was performed using the darkness of the protein band in proportion to the loading control. The statistical analysis was performed using the GraphPad Prism version 7 (GraphPad Software) program. For the data, the unpaired two-tailed student's t-test was applied, wherein p<of 0.05 indicates statistical significance.
As shown in Example 3, an image of an immunoblot performed after treating the SH-SY5Y cell line with compounds (10 μM, 48 hours) is shown in FIG. 6.

PGC-1α promoter = PGC-1α promoter luciferase assay (compound screening) in SH-PGC-1α-Luc reporter cells; type: cell-based, human; conditions: SH-PGC-1α-Luc cells, comparison of 14 drugs
Method: In order to prepare lentiviruses for preparation of stable reporter SH-SY5Y cells (SH-PGC-1α-Luc), 1-kb pGL3-PGC-1α promoter-luciferase was cloned to pGreenFire (System Biosciences), and a lentivirus construct was first prepared (provided by Akyosi Fukamizu from University of Tsukuba, Japan).
HEK293T cells cultured in 15 cm dish were subjected to transfection with 32 μg of pGreenFire vector, 9 μg of VSVg envelope, 6.25 μg of Prev, and 12.5 μg of pMDL.
After 48 hours, viral supernatants were collected and concentrated using ultracentrifugation, and viral pellets were dissolved with PBS. SH-SY5Y cells were treated with concentrated virus and screened with puromycin (1 μg/ml) a day later.
SH-PGC-1α-Luc was dispensed in a white, flat-bottomed 96-well plate, where culture was performed to accommodate 10,000 cells in 100 μl of DMEM (10% FBS+penicillin/streptomycin (P/S)) per well, and the cells were stabilized in an incubator at 37° C. in the presence of 5% CO2 for 12 hours.
The next day, each drug was added to 50 μl of warmed DMEM to the final concentration of 20 μM, then 50 μl of DMEM was removed from the cell-containing plate, and 50 μl of drug-containing DMEM was added (final concentration of 10 μM). Cells were then exposed to the drug for 48 hours, and luciferase activity was measured using SteadyGlo reagent (Promega). […]

[2] = system: PGC-1α and main target genes (NRF-1, Tfam); test: RT-qPCR of PGC-1α and its target genes (NRF-1, Tfam) in Parkinson's disease model mice; type: in vivo; conditions: substantia nigra of AAV-PARIS injected mice, diet for 4 weeks
Description: (§4) To prepare Parkinson's disease model mice, AAV-PARIS was stereotaxically injected into the substantia nigra area. The mice were fed with Chow or YPD-01 (2-(4-(1-hydroxypropan-2-yl)phenyl) isoindoline-1-one) diet (0.5% w/w) for 4 weeks, and then the brain was collected and sectioned using a microtome. Dopaminergic neurons were visualized by carrying out a reaction in the mouse brain tissue sliced into 35 μm sections using TH antibody, a neuronal dopamine marker, then exposed to Vectastine ABC (Vector biolabs) and DAB (Sigma) solutions. Six […] were used in each experiment.
In the animal model experiment set up as in Example 5, whether the expression of PGC-1α and the main target genes (NRF-1, Tfam) of PGC-1α increases due to YPD-01 intake was measured by RT-qPCR method.
The midbrain of mice into which AAV-PARIS was stereotaxically injected and which were fed with Chow or YPD-01 diet for 4 weeks was collected, and RNA was extracted using the total RNA extraction kit (Intron Biotechnology). cDNA was synthesized using the cDNA synthesis kit (Enzynomics) and oligo dT from the extracted RNA. Using primers and SYBR green (Qiagen) reagents for the gene to be analyzed, gene expression in Rotor gene Q (Qiagen) was quantified via qPCR.

[3] = system: PGC-1α protein in the SN of mice; test: Immunoblot of PGC-1α protein in the substantia nigra (SN) of mice fed compound diet; type: in vivo; conditions: diet 0.5% w/w for 1 week
Method: as §1, §2, §3
In FIG. 7, an immunoblot is shown for protein derived from the SN of mice fed with Chow, YPD-02 (2-[4-(3-oxo-1H-isoindol-2-yl)phenyl]propanoic acid), or YPD-01 (2-(4-(1-hydroxypropan-2-yl)phenyl) isoindoline-1-one) diet (0.5% w/w) for 1 week (quantitative graph quantified with β-actin/data was expressed as mean±SEM/statistical significance was measured by applying the unpaired two-tailed student t-test. * p<0.05, ** p<0.01.).

[4] = system: dopamine neurons in substantia nigra of AAV-PARIS Parkinson's disease model mice; test: Death of dopamine neurons in AAV-PARIS Parkinson's disease model mice (TH immunohistochemistry and immunoblot); type: in vivo; conditions: AAV-PARIS injected mice, diet 0.5% w/w for 4 weeks
Description: as §4
100 μl of pentobarbital (10 mg/ml) was injected into the abdomen of 8-week-old mice for anesthetization, mouse pericranium was peeled off, and then the left brain (X: 1.2, Y: −3.2, Z: −4.5) and right brain (X: 1.2, Y: 3.2, Z: −4.5) regions were marked based on the bregma. The marked portion was drilled, and the virus was injected slowly (30 seconds per 0.2 μl) through a syringe. After injecting the virus into the left brain, followed by a 2-minute standby, the same procedure was performed on the other side. After the surgical suture, the mice were carefully monitored, and breeding was followed in the cage until the recovery. […]

[5] = system: Parkinson's disease model mice; test: Pole test in AAV-PARIS Parkinson's disease model mice; type: in vivo; conditions: AAV-PARIS injected mice, YPD-01 diet 0.5% w/w
Description: as §4
In order to identify whether YPD-01 is effective in inhibiting the death of dopamine neurons and Parkinson's disease-like behavioral abnormality in the Parkinson's disease model, as shown in Example 5 above, a pole test, which is the most reliable behavioral experiment, was performed.
To investigate behavioral abnormality, Parkinson's disease model mice were transferred to a pole test cage to have the mice adapted for 3 minutes, and then the mouse tails were held and placed on the tip of a vertically erected pole. The time from the moment the mouse took off its hind foot from the tip of the pole until the mouse came down to the floor was measured.

Row | Compound | amount of PGC-1α protein (immunoblot) [1] | activity on PGC-1α promoter among the 14 drugs (FIG. 5) (PGC-1α promoter) | PARIS-induced suppression of expression of NRF-1 (RT-qPCR) [2] | PARIS-induced suppression of expression of PGC-1α (RT-qPCR) [2] | PARIS-induced suppression of expression of Tfam (RT-qPCR) [2] | passage through the BBB [3] | protein level of PGC-1α in the SN (immunoblot) ([3]; quantified with β-actin) | death of dopamine neurons (TH immunohistochemistry) [4] | death of dopamine neurons (TH immunoblot in substantia nigra) ([4]; quantified with β-actin) | symptoms of behavioral abnormality (time to come down from the top of the pole) [5]
1 | CC(C(=O)O)c1ccc(N2Cc3ccccc3C2=O)cc1 (stereo not drawn) [YPD-02, 2-[4-(3-oxo-1H-isoindol-2-yl)phenyl]propanoic acid, reference compound] | increased the amount of PGC-1α protein in accordance with an increase in the drug concentration | – | – | – | – | – | – | – | – | –
2 | CC(CO)c1ccc(N2Cc3ccccc3C2=O)cc1 (stereo not drawn) [YPD-01, 2-(4-(1-hydroxypropan-2-yl)phenyl) isoindoline-1-one] | increased the amount of PGC-1α protein regardless of the concentration | highest | significantly recovered | significantly recovered | significantly recovered | successfully passed through BBB | increased the protein level of PGC-1α | the death of dopamine neurons was meaningfully inhibited | the death of dopamine neurons by AAV-PARIS was inhibited | disappeared
3 | CC(C)OC(=O)C(C)c1ccc(N2Cc3ccccc3C2=O)cc1 (stereo not drawn) [YPD-03, isopropyl 2-(4-(1-oxoisoindolin-2-yl)phenyl) propanoate] | increased the amount of PGC-1α protein in accordance with an increase in the drug concentration | – | – | – | – | – | – | – | – | –
